Entries after “also recorded” stand apart in the source; their conditions may differ. Where only a bound is given, the exact number is not on record here.

By EC50 is commonly meant the concentration that produces a half-maximal response. One may read the ED50 as the midpoint of the dose-response relation. Higher therefore signals weaker potency.

The test system of one data set is H295R cell line. The data set can be described thus: Adrenocortical function in vitro test: secretion of cortisol and corticosterone, Group A compounds. Format: cell-based. To be noted: H295 cells.
As to `C=C=CC1(OC(=O)c2c(Cl)cnn2[C@H](C)c2ccccc2)COC1` [Compound A108], the “Corticosterone as an indicator to determine the presence of inhibition” value (“Corticosterone as an indicator … of inhibition” below) was determined as 0 and the “Cortisol as an indicator to determine the presence of inhibition” value (from here on “Cortisol as an indicator … of inhibition”) is recorded as 0.

Take `CC(=O)C1(OC(=O)c2ccnn2[C@H](C)c2ccccc2)COC1` [Compound A8]: the “Corticosterone as an indicator … of inhibition” value was found to be 0 and the “Cortisol as an indicator … of inhibition” value came out at 0.

With `C[C@H](c1ccccc1)n1nccc1C(=O)OC1CSC1` [Compound A6], the “Corticosterone as an indicator … of inhibition” value is on record as 0 and the “Cortisol as an indicator … of inhibition” value is listed as 0.

For `C#CC1(OC(=O)c2cc(F)nn2[C@H](C)c2ccccc2)COC1` [Compound A53], the “Corticosterone as an indicator … of inhibition” value is recorded as 0 and the “Cortisol as an indicator … of inhibition” value is given as 0.

On to `C=CC1(OC(=O)c2cc(F)nn2[C@H](C)c2ccccc2)COC1` [Compound A65], for which the “Corticosterone as an indicator … of inhibition” value came to 0 and the “Cortisol as an indicator … of inhibition” value is 0.

For the compound `CC#CCOC(=O)c1ccnn1[C@H](C)c1ccccc1` [Compound A23], the “Corticosterone as an indicator … of inhibition” value was 0 and the “Cortisol as an indicator … of inhibition” value was 0.

Regarding `COC(=O)C1=C(OC(=O)c2c(C(F)(F)F)cnn2[C@H](C)c2ccccc2)CCCC1` [Compound A101], the “Corticosterone as an indicator … of inhibition” value is 0 and the “Cortisol as an indicator … of inhibition” value is 0.

The data set is the same for the next values; noted with them: Homo sapiens; H295 cells, 0.1-10000 nM, HPLC-MS/MS; read-out: EC50 (Corticosterone).
With `C=C=CC1(OC(=O)c2c(Cl)cnn2[C@H](C)c2ccccc2)COC1` [Compound A108], the EC50 was more than 0.1 µM.

For the compound `CC(=O)C1(OC(=O)c2ccnn2[C@H](C)c2ccccc2)COC1` [Compound A8], the EC50 was more than 1 µM.

For `C[C@H](c1ccccc1)n1nccc1C(=O)OC1CSC1` [Compound A6], the EC50 is more than 1 µM.

For the compound `C#CC1(OC(=O)c2cc(F)nn2[C@H](C)c2ccccc2)COC1` [Compound A53], the 50% effective concentration (EC50) was more than 0.1 µM.

In the case of `C=CC1(OC(=O)c2cc(F)nn2[C@H](C)c2ccccc2)COC1` [Compound A65], the EC50 is more than 0.1 µM.

Turning to `CC#CCOC(=O)c1ccnn1[C@H](C)c1ccccc1` [Compound A23], the concentration giving a half-maximal response (EC50) was more than 0.1 µM.

Regarding `COC(=O)C1=C(OC(=O)c2c(C(F)(F)F)cnn2[C@H](C)c2ccccc2)CCCC1` [Compound A101], the 50% effective concentration (EC50) is more than 0.1 µM.

The data set is the same for the next values; noted with them: Homo sapiens; H295 cells, 0.1-10000 nM, HPLC-MS/MS; read-out: EC50 (Cortisol).
For `C=C=CC1(OC(=O)c2c(Cl)cnn2[C@H](C)c2ccccc2)COC1` [Compound A108], the concentration for a half-maximal effect (EC50) is more than 0.1 µM.

For the compound `CC(=O)C1(OC(=O)c2ccnn2[C@H](C)c2ccccc2)COC1` [Compound A8], the EC50 is more than 1 µM.

For `C[C@H](c1ccccc1)n1nccc1C(=O)OC1CSC1` [Compound A6], the concentration giving a half-maximal response (EC50) is more than 1 µM.

With `C#CC1(OC(=O)c2cc(F)nn2[C@H](C)c2ccccc2)COC1` [Compound A53], the EC50 was more than 0.1 µM.

`C=CC1(OC(=O)c2cc(F)nn2[C@H](C)c2ccccc2)COC1` [Compound A65]: the EC50 is more than 0.1 µM.

In the case of `CC#CCOC(=O)c1ccnn1[C@H](C)c1ccccc1` [Compound A23], the EC50 is more than 0.1 µM.

`COC(=O)C1=C(OC(=O)c2c(C(F)(F)F)cnn2[C@H](C)c2ccccc2)CCCC1` [Compound A101]: the concentration giving a half-maximal response (EC50) is more than 0.1 µM.

In a further data set the test system is Sprague-Dawley rats. The data set can be described thus: Pharmacological characteristics at equivalent doses (2ED50), Group A compounds. To be noted: 2ED50, tail vein. Format: in vivo.
As for `C=C=CC1(OC(=O)c2c(Cl)cnn2[C@H](C)c2ccccc2)COC1` [Compound A108], the Onset time amounted to 0.26 ± 0.20 min and the Righting reflex duration is recorded as 3.29 ± 1.20 min.

For `CC(=O)C1(OC(=O)c2ccnn2[C@H](C)c2ccccc2)COC1` [Compound A8], the Onset time came out at 0.57 ± 0.20 min and the Righting reflex duration turned out to be 2.70 ± 2.52 min.

As for `C[C@H](c1ccccc1)n1nccc1C(=O)OC1CSC1` [Compound A6], the Onset time is given as 0.38 ± 0.12 min and the Righting reflex duration came to 3.81 ± 2.17 min.

On to `C#CC1(OC(=O)c2cc(F)nn2[C@H](C)c2ccccc2)COC1` [Compound A53], for which the Onset time came to 0.53 ± 0.28 min and the Righting reflex duration worked out at 3.01 ± 1.22 min.

In the case of `C=CC1(OC(=O)c2cc(F)nn2[C@H](C)c2ccccc2)COC1` [Compound A65], the Onset time was found to be 0.36 ± 0.15 min and the Righting reflex duration came to 2.48 ± 0.67 min.

Regarding `CC#CCOC(=O)c1ccnn1[C@H](C)c1ccccc1` [Compound A23], the Onset time was 0.48 ± 0.14 min and the Righting reflex duration is listed as 2.28 ± 1.83 min.

In the case of `COC(=O)C1=C(OC(=O)c2c(C(F)(F)F)cnn2[C@H](C)c2ccccc2)CCCC1` [Compound A101], the Onset time is recorded as 0.39 ± 0.21 min and the Righting reflex duration is on record as 2.29 ± 0.65 min.

Staying with this data set, now noted: 2ED50, tail vein, (animals affected/animals).
`C=C=CC1(OC(=O)c2c(Cl)cnn2[C@H](C)c2ccccc2)COC1` [Compound A108]: the “Types and incidence of adverse reactions” value is listed as “Red urine(8/8), Hindlimb; also recorded: rigidity (7/8), the four; also recorded: limbs Tremor(3/8)”.

On to `CC(=O)C1(OC(=O)c2ccnn2[C@H](C)c2ccccc2)COC1` [Compound A8], for which the “Types and incidence of adverse reactions” value is given as “Red urine(8/8),; also recorded: Tremor(2/8),; also recorded: Euphoria(1/8)”.

With `C[C@H](c1ccccc1)n1nccc1C(=O)OC1CSC1` [Compound A6], the “Types and incidence of adverse reactions” value was “Red urine(8/8), Facial; also recorded: muscle; also recorded: twitching(2/8), Hindlimb; also recorded: rigidity (1/8)”.

With `C#CC1(OC(=O)c2cc(F)nn2[C@H](C)c2ccccc2)COC1` [Compound A53], the “Types and incidence of adverse reactions” value is “Red and urine(8/8), Tremor(2/8)”.

As for `C=CC1(OC(=O)c2cc(F)nn2[C@H](C)c2ccccc2)COC1` [Compound A65], the “Types and incidence of adverse reactions” value was “Red and urine(8/8), Tremor(2/8)”.

For `CC#CCOC(=O)c1ccnn1[C@H](C)c1ccccc1` [Compound A23], the “Types and incidence of adverse reactions” value is “Red and urine(8/8), Euphoria(6/8), and Hindlimb rigidity and (2/8), Tremor(1/8), and Convulsions(1/8)”.

In the case of `COC(=O)C1=C(OC(=O)c2c(C(F)(F)F)cnn2[C@H](C)c2ccccc2)CCCC1` [Compound A101], the “Types and incidence of adverse reactions” value was “Red and urine(8/8), Euphoria(3/8), and Nod(2/8)”.

The test system of the next data set is Sprague-Dawley rats. Description: animal or person. The conditions noted are these: Rattus norvegicus. As to the method: Adult male Sprague-Dawley rats (250-300 g) were selected for the experiment. […] The anesthesia effects of the compounds were assessed in rats using a LORR assay and a period >30 s was considered as an indicator of general anesthesia.
In turn, `C=C=CC1(OC(=O)c2c(Cl)cnn2[C@H](C)c2ccccc2)COC1` [Compound A108] had a median effective dose (ED50) of 2 to 6 mg/kg.

As to `CC(=O)C1(OC(=O)c2ccnn2[C@H](C)c2ccccc2)COC1` [Compound A8], the 50% effective dose (ED50) was in the range of 1 to 2 mg/kg.

`C[C@H](c1ccccc1)n1nccc1C(=O)OC1CSC1` [Compound A6] displayed a median effective dose (ED50) of 2 to 6 mg/kg.

`C#CC1(OC(=O)c2cc(F)nn2[C@H](C)c2ccccc2)COC1` [Compound A53] had an ED50 of 2 to 6 mg/kg.

Consider `C=CC1(OC(=O)c2cc(F)nn2[C@H](C)c2ccccc2)COC1` [Compound A65], for which the median effective dose (ED50) fell in the range of 2 to 6 mg/kg.

On to `CC#CCOC(=O)c1ccnn1[C@H](C)c1ccccc1` [Compound A23], for which the 50% effective dose (ED50) lay within 2 to 6 mg/kg.

Consider `COC(=O)C1=C(OC(=O)c2c(C(F)(F)F)cnn2[C@H](C)c2ccccc2)CCCC1` [Compound A101], for which the median effective dose (ED50) is 1 to 2 mg/kg.

The data set is the same for the next values; noted with them: rats.
Take `C=C=CC1(OC(=O)c2c(Cl)cnn2[C@H](C)c2ccccc2)COC1` [Compound A108]: the Approximate therapeutic index was more than 5 and the Minimal lethal dose is listed as more than 15 mg/kg.

Consider `CC(=O)C1(OC(=O)c2ccnn2[C@H](C)c2ccccc2)COC1` [Compound A8], for which the Approximate therapeutic index was more than 7 and the Minimal lethal dose is more than 9 mg/kg.

In turn, `C[C@H](c1ccccc1)n1nccc1C(=O)OC1CSC1` [Compound A6] registered an Approximate therapeutic index of more than 5 and a Minimal lethal dose of more than 13 mg/kg.

Turning to `C#CC1(OC(=O)c2cc(F)nn2[C@H](C)c2ccccc2)COC1` [Compound A53], the Approximate therapeutic index was more than 6 and the Minimal lethal dose was more than 14 mg/kg.

`C=CC1(OC(=O)c2cc(F)nn2[C@H](C)c2ccccc2)COC1` [Compound A65] yielded an Approximate therapeutic index of more than 7 and a Minimal lethal dose of more than 16 mg/kg.

Regarding `CC#CCOC(=O)c1ccnn1[C@H](C)c1ccccc1` [Compound A23], the Approximate therapeutic index was more than 5 and the Minimal lethal dose is given as more than 11 mg/kg.

`COC(=O)C1=C(OC(=O)c2c(C(F)(F)F)cnn2[C@H](C)c2ccccc2)CCCC1` [Compound A101] registered an Approximate therapeutic index of more than 8 and a Minimal lethal dose of more than 13 mg/kg.
